Activity and inhibition in vivo data for 47 compounds are collected here from ChEMBL document CHEMBL3244164, “Synthesis and analgesic activity of 1,3-dihydro-3-(substituted phenyl)imidazo[4,5-b]pyridin-2-ones and 3-(substituted phenyl)-1,2,3-triazolo[4,5-b]pyridines” (J Med Chem, 1978).

What is called inhibition in vivo is the drop in the measured response relative to a control, in per cent.

The test system of experiment [1] is Rattus norvegicus. Kind of experiment: Analgesic activity in Sprague-Dawley rat normal foot assessed as response threshold at 32 mg/kg, po. It is filed as functional.
For experiment [2], the system named is Rattus norvegicus. Description: Analgesic activity in Sprague-Dawley rat brewer's yeast treated foot assessed as response threshold at 8 to 16 mg/kg, po. It is filed as functional. Particulars: dose mg/kg 8-16.
In experiment [3] the test system is Mus musculus. Description: Analgesic activity in mouse assessed as withdrawal latency at 12.5 to 75 mg/kg, po by Haffner tail clamp method. It is filed as functional, organism-based.
Experiment [4] has as its system Mus musculus. Description: Analgesic activity in naloxone treated mouse assessed as withdrawal latency at 12.5 to 75 mg/kg, po. It is filed as functional, organism-based.
Experiment [5] concerns Rattus norvegicus. Description: Analgesic activity in Sprague-Dawley rat brewer's yeast treated foot assessed as response threshold at 16 to 32 mg/kg, po. Particulars: dose mg/kg 16-32. It is filed as functional.
For experiment [6], the system named is Rattus norvegicus. Kind of experiment: Analgesic activity in Sprague-Dawley rat normal foot assessed as response threshold at 16 to 32 mg/kg, po. It is filed as functional. Particulars: dose mg/kg 16-32.
Experiment [7] concerns Rattus norvegicus. Description: Analgesic activity in Sprague-Dawley rat normal foot assessed as response threshold at 8 to 16 mg/kg, po. It is filed as functional. Particulars: dose mg/kg 8-16.
Experiment [8] deals with Rattus norvegicus. Kind of experiment: Analgesic activity in Sprague-Dawley rat brewer's yeast treated foot assessed as response threshold at 8 mg/kg, po. It is filed as functional.
In experiment [9] the test system is Rattus norvegicus. Kind of experiment: Antiarthritic activity in Lewis rat assessed as inhibition of adjuvant-induced paw swelling at 50 mg/kg, po qd for 13 days measured on day 14. It is filed as functional.
Experiment [10] relates to Rattus norvegicus. Kind of experiment: Antiinflammatory activity in Sprague-Dawley rat assessed as inhibition of carrageenan-induced paw edema at 30 mg/kg, po. It is filed as functional. (In general: Carrageenan injected into the paw causes an acute inflammation.)
Experiment [11] has as its system Rattus norvegicus. Kind of experiment: Analgesic activity in Sprague-Dawley rat brewer's yeast treated foot assessed as response threshold at 32 mg/kg, po. It is filed as functional.

SMILES strings stand for the structures. The source made the active and inactive calls.

In the case of `O=c1[nH]c2cccnc2n1-c1ccccc1`, the Activity in experiment [1] is on record as 40 mm; in experiment [2], more than 25 mm.

As to `C=CCn1c(=O)n(-c2ccc3c(c2)OCO3)c2ncccc21`, the outcome in experiment [3] was Active. Further, the result in experiment [4] was inactive.

Turning to `c1cnc2c(c1)nnn2-c1ccc2c(c1)OCCO2`, the Activity is given as more than 25 mm in experiment [5] and less than 40 mm in experiment [1].

With `CC(C)(C)n1c(=O)n(-c2ccc3c(c2)OCO3)c2ncccc21`, the results for the Activity in experiment [6] and in experiment [5] were more than 40 mm and more than 25 mm, respectively.

In the case of `O=c1n(-c2ccc3c(c2)OCO3)c2ncccc2n1C1CCCC1`, the results for the Activity in experiment [6] and in experiment [2] were more than 40 mm and more than 25 mm, respectively.

Consider `Cn1c(=O)n(-c2ccc3c(c2)OCO3)c2ncccc21`, for which the Activity in experiment [7] is more than 50 mm; in [5], more than 25 mm.

As to `CCCn1c(=O)n(-c2ccc3c(c2)OCO3)c2ncccc21`, the Activity is recorded as more than 50 mm in experiment [7] and more than 25 mm in [2].

Regarding `CN1CC[C@]23c4c5ccc(O)c4O[C@H]2[C@@H](O)C=C[C@H]3[C@H]1C5` [MORPHINE], the Activity was more than 50 mm in experiment [7], less than 40 mm in experiment [1] and more than 34 mm in experiment [8].

With `O=c1n(CO)c2cccnc2n1-c1ccc2c(c1)OCO2`, the values for the Activity in experiment [5] and in experiment [1] were more than 25 mm and 40 mm, respectively.

`CC(C)n1c(=O)n(-c2ccc3c(c2)OCO3)c2ncccc21`: the Activity in experiment [7] is more than 50 mm; in experiment [8], more than 34 mm.

Regarding `Cc1ccc(-n2c(=O)[nH]c3cccnc32)c(C)c1`, the Activity in [5] is more than 25 mm; in experiment [1], less than 40 mm.

For `CCn1c(=O)n(-c2ccc3c(c2)OCO3)c2ncccc21`, the Activity is given as more than 25 mm in experiment [5] and less than 40 mm in [1].

For `Cc1ccc(-n2c(=O)[nH]c3cccnc32)cc1`, the figures for the Activity in [6] and in [5] were more than 40 mm and more than 25 mm, respectively.

As for `O=c1n(CCO)c2cccnc2n1-c1ccc2c(c1)OCO2`, the values for the Activity in [6] and in experiment [2] were more than 40 mm and more than 25 mm, respectively.

For the compound `CCCCC1C(=O)N(c2ccccc2)N(c2ccccc2)C1=O` [PHENYLBUTAZONE], the inhibition in vivo at 50 mg/kg in experiment [9] came out at 78%. Besides, in [10], the inhibition in vivo at 30 mg/kg worked out at 39%.

Take `Fc1ccc(-n2nnc3cccnc32)c(F)c1`: the figures for the Activity in experiment [6] and in [2] were more than 40 mm and more than 25 mm, respectively.

In the case of `CCCn1c(=O)n(-c2ccccc2)c2ncccc21`, the Activity in experiment [5] is given as more than 25 mm; in experiment [1], 40 mm.

As for `CC(C)(C)Oc1nc2cccnc2n1-c1ccc2c(c1)OCO2`, the values for the Activity in experiment [1] and in experiment [2] were less than 40 mm and more than 25 mm, respectively.

On to `COc1ccc2c3c1O[C@H]1[C@@H](O)C=C[C@H]4[C@@H](C2)N(C)CC[C@@]341` [CODEINE], for which the Activity was more than 40 mm in [6] and more than 25 mm in experiment [2].

For the compound `Fc1ccccc1-n1nnc2cccnc21`, the Activity in experiment [1] is less than 40 mm; in [2], more than 25 mm.

In the case of `C=C(Cl)Cn1c(=O)n(-c2ccc3c(c2)OCO3)c2ncccc21`, the Activity in experiment [6] is listed as more than 40 mm; in experiment [5], more than 25 mm.

Consider `O=c1n(CC2CC2)c2cccnc2n1-c1ccc2c(c1)OCO2`, for which the Activity in experiment [6] was more than 40 mm; in [5], more than 25 mm.

On to `CC(O)Cn1c(=O)n(-c2ccc3c(c2)OCO3)c2ncccc21` (stereo not given), for which the Activity is more than 25 mm in experiment [5] and 40 mm in experiment [1].

For `O=c1[nH]c2cccnc2n1-c1ccccc1F`, the Activity in [1] is reported as less than 40 mm; in experiment [11], 25 mm.

As for `Fc1ccc(F)c(-n2nnc3cccnc32)c1`, the values for the Activity in [5] and in experiment [1] were more than 25 mm and less than 40 mm, respectively.

For the compound `O=c1[nH]c2cccnc2n1Cc1ccc(F)cc1`, the results for the Activity in experiment [1] and in experiment [11] were less than 40 mm and less than 25 mm, respectively.

For the compound `Cc1ccc(-n2nnc3cccnc32)cc1C`, the Activity in experiment [1] is reported as less than 40 mm; in experiment [11] it was less than 25 mm.

On to `c1ccc(Oc2ccc(-n3nnc4cccnc43)cc2)cc1`, for which the results for the Activity in experiment [1] and in experiment [11] were less than 40 mm and less than 25 mm, respectively.

As for `CC(C)Cn1c(=O)n(-c2ccc3c(c2)OCO3)c2ncccc21`, the Activity in experiment [5] is given as more than 25 mm; in experiment [1], less than 40 mm.

As to `O=c1[nH]c2cccnc2n1-c1ccccc1Cl`, the Activity in [5] is more than 25 mm; in experiment [1], less than 40 mm.

With `Oc1ccccc1-n1nnc2cccnc21`, the Activity in experiment [1] is less than 40 mm; in [11] it was less than 25 mm.

As to `COC(=O)c1cnc2c(c1)nnn2-c1ccc2c(c1)OCO2`, the Activity in [1] is less than 40 mm; in experiment [11] it was less than 25 mm.

With `O=c1n(C/C=C/c2ccccc2)c2cccnc2n1-c1ccc2c(c1)OCO2`, the Activity is given as less than 40 mm in experiment [1] and less than 25 mm in [11].

Regarding `N#Cc1ccccc1-n1nnc2cccnc21`, the Activity is on record as less than 40 mm in [1] and 25 mm in experiment [11].

Consider `COC(=O)c1cnc2c(c1)nnn2-c1ccccc1F`, for which the Activity is reported as less than 40 mm in [1] and less than 25 mm in experiment [11].

Turning to `C=CCn1c(=O)n(-c2cccc(C)n2)c2ncccc21`, the Activity in experiment [1] is on record as less than 40 mm; in experiment [11], less than 25 mm.

For `c1ccc(CCn2nnc3cccnc32)cc1`, the Activity in [1] is reported as less than 40 mm; in [11], less than 25 mm.

`COc1cc(-n2c(=O)[nH]c3cccnc32)ccc1C`: the Activity is listed as less than 40 mm in experiment [1] and less than 25 mm in experiment [11].

With `Cc1oc2ccc(-n3c(=O)[nH]c4cccnc43)cc2c1C`, the Activity in experiment [1] was less than 40 mm; in experiment [11] it was less than 25 mm.

Consider `Fc1cccc(F)c1-n1nnc2cccnc21`, for which the Activity is reported as less than 40 mm in experiment [1] and 25 mm in experiment [11].

For the compound `O=C(O)c1cnc2c(c1)[nH]c(=O)n2-c1ccc2c(c1)OCO2`, the Activity in experiment [1] is on record as less than 40 mm; in experiment [11], less than 25 mm.

Take `Nc1ccc(-n2c(=O)[nH]c3cccnc32)cc1`: the Activity was more than 25 mm in experiment [5] and less than 40 mm in experiment [1].

Regarding `COc1cc(-n2c(=O)[nH]c3cccnc32)cc(OC)c1OC`, the Activity in experiment [1] was less than 40 mm; in [11], less than 25 mm.

For `Fc1ccccc1-n1nnc2cc(Cl)cnc21`, the Activity in experiment [1] is on record as less than 40 mm; in experiment [11], 25 mm.

As to `CCOCn1c(=O)n(-c2ccc3c(c2)OCO3)c2ncccc21`, the Activity in [1] is less than 40 mm; in experiment [11], less than 25 mm.

Turning to `COc1cccc(-n2c(=O)[nH]c3cccnc32)c1`, the Activity in experiment [1] is less than 40 mm; in experiment [11], less than 25 mm.

`Fc1cccc(-n2nnc3cccnc32)c1`: the Activity in experiment [1] is reported as less than 40 mm; in experiment [11], less than 25 mm.
